Results as given in patent US20060189576A1, “Substituted vitamin d analogues and their therapeutic uses” (priority 2003, published 2006).
Like-named read-outs stand apart in the source and are kept apart here. Marks after values point to notes of the source that are not given here.

What was measured:
[1] = for Femur calcium: NMRI mice; for IN VIVO STUDIES Osteocalcin serum: mice, daily intraperitoneal injection 7 consecutive days, percentage activity vs 1α,25(OH)2D3 (=100%); for IN VIVO STUDIES Calcium serum / IN VIVO STUDIES Calcium urine / Serum calcium in mice: mouse, ip, in vivo
Method: Eight weeks old, male NMRI mice were obtained from the Proefdierencentrum of Leuven (Belgium) and fed a vitamin D-replete diet (0.2% calcium, 1% phosphate, 2000 U vitamin D/kg; Hope Farms, Woerden, The Netherlands). […] The control group was injected with vehicle (arachis oil). The average weight of each group of 6 mice was determined at the beginning and at the end of the experiment. The following parameters were evaluated: serum calcium, serum osteocalcin, femur calcium and urinary calcium. Serum and urinary calcium were measured by a microcolorimetric assay (Sigma, St. Louis, Mo.). Femurs were removed and femur calcium content was measured in HCl-dissolved bone ash (obtained by heating for 24 h in an oven at 100° C.), using the same technique as for serum and urinary calcium.

hDBP = target: T1, hDBP (Homo sapiens, UniProt P02774); experiment: Affinity for human DBP: competition with [3H]1α,25(OH)2D3; format: binding; details: percentage activity (at 50% of the dose response) in comparison with 1α,25(OH)2D3 (=100%)
T1 sequence (P02774 17-474): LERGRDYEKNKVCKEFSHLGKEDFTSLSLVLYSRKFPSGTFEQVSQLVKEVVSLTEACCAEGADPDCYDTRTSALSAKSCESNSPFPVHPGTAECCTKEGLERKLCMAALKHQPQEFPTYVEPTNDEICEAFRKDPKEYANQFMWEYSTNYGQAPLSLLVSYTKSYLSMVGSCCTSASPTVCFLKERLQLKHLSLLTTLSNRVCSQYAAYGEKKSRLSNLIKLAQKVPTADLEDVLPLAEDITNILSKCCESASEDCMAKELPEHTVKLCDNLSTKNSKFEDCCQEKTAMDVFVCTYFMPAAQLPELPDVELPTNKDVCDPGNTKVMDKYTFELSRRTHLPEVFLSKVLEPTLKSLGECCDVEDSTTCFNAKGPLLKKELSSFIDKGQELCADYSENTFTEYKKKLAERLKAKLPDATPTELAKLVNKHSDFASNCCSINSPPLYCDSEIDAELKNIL
Method: Phase separation was then obtained by the addition of 0.5 ml of cold dextran-coated charcoal.

HL-60 cells = experiment: HL-60 cell differentiation (NBT reduction assay); format: cell-based; details: for IN VITRO STUDIES HL 60: potency to differentiate HL 60 cells, percentage activity vs 1α,25(OH)2D3 (=100%)
Method: To evaluate the effect on cell differentiation HL-60 cells were seeded at 4×10^4 cells/ml in 25 cm^2 Falcon tissue chambers using RPMI 1640 medium supplemented with 20% FCS and gentamycin (50 μg/ml) in a final volume of 5 ml. Cultures were maintained at 37° C. in a humidified atmosphere of 5% CO2 in air. […] After 4 days of culture, the dishes were shaken to lose adherent cells. Cells were washed twice in RPMI, counted and assayed for differentiation markers (NBT reduction assay). Superoxide production was measured as NBT reducing activity as described previously (Ostrem V. K et al. Proc Natl Acad Sci USA 84: 2610-2614, 1987). HL-60 cells at 1×10^6/ml were mixed with an equal volume of freshly prepared solution of phorbol 12-myristate 13-acetate (200 ng/ml) and […] and incubated for 30 min at 37° C. The percentage of cells containing black formazan deposits was determined using a hemacytometer.

vitamin D receptor = target: T2, vitamin D receptor (Sus scrofa, UniProt A3RGC1); details: percentage activity (at 50% of the dose response) in comparison with 1α,25(OH)2D3 (=100%)
T2 sequence (A3RGC1 1-427): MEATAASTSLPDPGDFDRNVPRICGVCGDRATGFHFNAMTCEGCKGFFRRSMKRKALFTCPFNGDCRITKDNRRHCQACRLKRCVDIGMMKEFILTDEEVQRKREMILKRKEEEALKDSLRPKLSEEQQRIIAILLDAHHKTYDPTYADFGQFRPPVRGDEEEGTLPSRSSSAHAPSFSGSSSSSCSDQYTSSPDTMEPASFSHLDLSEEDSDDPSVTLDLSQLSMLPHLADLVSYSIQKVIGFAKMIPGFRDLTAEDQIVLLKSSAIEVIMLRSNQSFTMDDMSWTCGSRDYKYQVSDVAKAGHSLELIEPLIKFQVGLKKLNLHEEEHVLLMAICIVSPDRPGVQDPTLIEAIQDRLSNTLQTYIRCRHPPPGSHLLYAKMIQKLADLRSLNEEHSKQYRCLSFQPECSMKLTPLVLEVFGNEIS
Method: The incubation was performed at 4° C. for 20 h and phase separation was obtained by addition of dextran-coated charcoal.

[2] = Primary prevention of osteoporosis in ovariectomized mice; format: in vivo, C3H female mice
Method: 12 week old C3H female mice are subjected to bilateral ovariectomy or sham surgery. The animals are treated with the analog or vehicle by oral gavage or intraperitoneally. Dosing is started 3 days after sugery and continued for 8-9 weeks.
(§1) Before the first treatment in vivo measurements are performed to determine bone mineral density (BMD), bone mineral content (BMC) of total body and spine by dual-energy X-ray absorptiometry (DXA). Urine and serum is collected to measure calcium levels together with collagen cross-links in urine and osteocalcin in serum. The animals are weighed regularly during the experimental period. After 4 weeks treatment urine and serum is again collected and biochemical parameters are determined. At the end of the experiment (8-9 weeks) urine is collected and DXA measurement is performed in vivo to determine BMD and BMC. After killing the animals tibiae and femora are dissected The following biochemical parameters are investigated: serum calcium, serum osteocalcin, urine calcium, urine collagen cross-links, femur calcium.
(§2) Tibiae are used for histomorphometric analysis and femurs for measurement of cortical and trabecular volumetric density and geometry by peripheral quantitative computed tomography (pQCT) ex vivo.

MCF-7 cells [3] = experiment: MCF-7 cell proliferation ([3H]thymidine incorporation); format: cell-based; details: for IN VITRO STUDIES MCF-7: antiproliferative action, percentage activity vs 1α,25(OH)2D3 (=100%); for Antiproliferative activity on MCF-7 cells: percentage activity (at 50% of the dose response) vs 1α,25(OH)2D3 (=100%)
Method: To evaluate the effect of on cell proliferation, malignant MCF-7 cells were cultured in DMEM/nut. mix. […] Cultures were maintained at 37° C. in a humidified atmosphere of 5% CO2 in air. MCF-7 cells were seeded at 5×10^3 cells/well in the above described medium in 96-well microtiter plates in a final volume of 0.2 ml per well. Triplicate cultures were performed. […] Then, 1 μCi [^3H]thymidine was added to each well and cells were harvested after 4 h incubation with a Packard harvester and measured by the Packard Topcount System (Packard, Meriden, USA).

[4] = Secondary prevention or treatment of osteoporosis in ovariectomized mice; format: in vivo, C3H female mice
Method: 12 week old C3H female mice are subjected to bilateral ovariectomy or sham surgery. The animals are treated with the analog or vehicle by oral gavage or intraperitoneally. Dosing is started 4 weeks after sugery and continued for 4-10 weeks.
as §1, with “dual-energy,” for “dual-energy”, “determined and” for “determined. At the end of the experiment (8-9 weeks)”
as §2

[5] = background, well established; cited from earlier work
[6] = known superagonists; data published in J Bone Mineral Res 15 (2): 237-252 (2000); cited from earlier work
MCF-7 cells [7] = details: known superagonists; data published in J Bone Mineral Res 15 (2): 237-252 (2000); cited from earlier work

Row | Compound | IN VIVO STUDIES Osteocalcin serum [1] [%] | IN VIVO STUDIES Calcium serum [1] | IN VIVO STUDIES Calcium urine [1] [%] | Serum calcium in mice [1] | AFFINITY STUDIES DBP (hDBP) [%] | prodifferentiating effect (in words) (HL-60 cells; HL 60 cells) | IN VITRO STUDIES HL 60 (HL-60 cells) [%] | AFFINITY STUDIES VDR (vitamin D receptor) [%] | antiproliferative effect (in words) (MCF-7 cells [3]; MCF-7 cells) | IN VITRO STUDIES MCF-7 (MCF-7 cells [3]) [%] | Antiproliferative activity on MCF-7 cells (MCF-7 cells [3]) [%] | further results
1 | 14-epi-2α-methyl-19-nor-23-yn-1α,25-dihydroxyvitamin D3 [Compound 108] | 4 | 2% | 4 | 2% | 0.3 | very potent | 4000 | 80 | very potent | 12000 | 12000 | increase of calcium levels in bone compared to 0.1 μg/kg/d 1,25(OH)2D3 ([1]; 1 μg/kg/d, 7 consecutive days): 18%; increase of calcium levels in bone compared to 0.2 μg/kg/d 1,25(OH)2D3 ([1]; 1 μg/kg/d, 7 consecutive days): 14%; increase of calcium levels in bone compared to 0.4 μg/kg/d 1,25(OH)2D3 ([1]; 1 μg/kg/d, 7 consecutive days): 20%; increase of calcium levels in bone compared to vehicle treated mice ([1]; 1 μg/kg/d, 7 consecutive days): 10%; Femur calcium ([1]; 0.4 μg/kg/d intraperitoneally, 7 consecutive days): 9.57 ± 0.26 mg; Femur calcium ([1]; 1 μg/kg/d intraperitoneally, 7 consecutive days): 10.52 ± 0.43*^,$ mg; prodifferentiating activity, times that of 1α,25(OH)2D3 (HL-60 cells; HL 60 cells): 40 times; serum calcium or urinary calcium levels ([2]; after at least four weeks, more particularly 8 weeks of treatment): not significantly increased; BMD, BMC and femur calcium ([2]; ovariectomized mice, dosing from 3 days after surgery for 8-9 weeks): increase; antiproliferative activity, times that of 1α,25(OH)2D3 (MCF-7 cells [3]; MCF-7 cells): 120 times; serum calcium or urinary calcium levels ([4]; after four weeks, more particularly 8 weeks of treatment): not significantly increased; BMD, BMC and femur calcium concentration ([4]; ovariectomized mice, dosing from 4 weeks after surgery, compared to levels prior to treatment): increase
2 | C[C@H](CCCC(C)(C)O)[C@H]1CC[C@H]2/C(=C/C=C3C[C@@H](O)C[C@H](O)C3)CCC[C@]12C [19-nor-1α,25-dihydroxyvitamin D3] |  |  |  |  |  |  |  |  |  |  |  | calcemic effect, % of that of 1α,25(OH)2D3 [5]: 10%
3 | CCC1C(O)CC(=CC=C2CCCC3(C)C2CCC3C(C)CC#CC(C)(C)O)CC1O (stereo not drawn) [Compound 111, 2β-ethyl-19-nor-23-yne-1α,25(OH)2D3] | 0.8 | 0.4% | 0.8 | 0.4% | 0.5 |  | 80 | 9 |  | 700 | 700 | 
4 | CCC1C(O)CC(=CC=C2CCCC3(C)C2CCC3C(C)CC#CC(C)(C)O)CC1O (stereo not drawn) [Compound 112, 2α-ethyl-19-nor-23-yne-1α,25(OH)2D3] | 3 | 1.6% | 0.8 |  | 0.9 | very potent | 300 | 55 | very potent | 2000 |  | enhancement of antiproliferative effects on MCF-7 cells on introduction of the 23-yne side chain (MCF-7 cells [3]; compared with 2α-ethyl-19-nor-1α,25(OH)2D3 (110)): 3 fold
5 | CCC1C(O)CC(=CC=C2CCCC3(C)C2CCC3C(C)CCCC(C)(C)O)CC1O (stereo not drawn) [Compound 113] | 0.4 | 0.4% | 0.4 |  | 3 |  | 10 | 8 |  | 75 |  | 
6 | CCC1C(O)CC(=CC=C2CCCC3(C)C2CCC3C(C)CCCC(C)(C)O)CC1O (stereo not drawn) [Compound 114, 2α-ethyl-14-epi-19-nor-1α,25(OH)2D3] | 1 | 1% | 1 |  | 40 |  | 80 | 30 |  | 150 |  | 
7 | CCC1C(O)CC(=CC=C2CCCC3(C)C2CCC3C(C)CC#CC(C)(C)O)CC1O (stereo not drawn) [Compound 115, 2β-ethyl-14-epi-19-nor-23-yne-1α,25(OH)2D3] | 0.1 | <<0.1% | <0.1 | <<0.1% | 0.2 |  | 80 | 9 |  | 600 | 600 | 
8 | CCC1C(O)CC(=CC=C2CCCC3(C)C2CCC3C(C)CC#CC(C)(C)O)CC1O (stereo not drawn) [Compound 116, 2α-ethyl-14-epi-19-nor-23-yne-1α,25(OH)2D3] | 0.2 | 0.2% |  | 0.2% | 0.1 | very potent | 550 | 65 | very potent | 3000 | 3000 | 
9 | CC(CC#CC(C)(C)O)C1CCC2C(=CC=C3CC(O)C(C)C(O)C3)CCCC21C (stereo not drawn) [Compound 117, 3,14-bis-epi-2α-methyl-19-nor-23-yn-1α,25-dihydroxyvitamin-D3] |  | <0.25% | <0.25 |  | 0 | very potent | 400 | 40 | very potent |  |  | 
10 | C=C1/C(=C\C=C2/CCC[C@]3(C)[C@@H]([C@H](C)/C=C/[C@@H](O)C4CC4)CC[C@@H]23)C[C@@H](O)C[C@@H]1O [MC 903] |  |  |  |  |  |  |  |  |  |  |  | Serum calcium in mice [6]: 1%; Antiproliferative activity on MCF-7 cells (MCF-7 cells [7]): 100-200%
11 | C=C1/C(=C\C=C2/CCC[C@]3(C)[C@@H]([C@H](C)OCCC(C)(C)O)CC[C@@H]23)C[C@@H](O)C[C@@H]1O [OCT] |  |  |  |  |  |  |  |  |  |  |  | Serum calcium in mice [6]: 0.3%; Antiproliferative activity on MCF-7 cells (MCF-7 cells [7]): 100-150%
